# “Also recorded” adds a separate entry of the source.
# Key:
# a-SMA and SM22a = test: immunofluorescence of contractile proteins in ligated carotids; format: in vivo, mouse; details: ligated carotids of treated mice
# Description: (§1) All mice used in this study were cared for under strict compliance with the Partners Institutional Animal Care and Use Committee (IACUC), regulated by the United States Public Health Service (USPHS). Carotid ligations were performed in 10 week old mice. Briefly, animals were anesthetized using intraperitoneal ketamine/xylazine (80 and 12 mg/kg, respectively) followed by a small incision in the neck to expose the carotid artery. Then the left carotid was ligated at the carotid bifurcation level using a 8-0 silk suture. At 21 days mice were sacrificed and carotids were collected for histological analysis. Approximately 98% of wild type mice developed stenotic lesions. Mice that developed thrombosis of the ligated carotid were excluded from the study (−1¬2%). Malatl knockout mice were kindly provided by Dr. David Spector (Cold Spring Harbor, N.Y.). Hdac9 flox/flox/Talgn-cre mice were generated as previously reported (10). Ezh2 fl/fl/ (STOCK Ezh2tm2Sho/J) and Myh11-cre-GFP (B6.Cg-Tg(Myh11-cre,-EGFP)2Mik/J) were crossed to generate smooth muscle cell-Ezh2 deficient mice. All above mice and wild-type mice (C57BL/6J) were purchased from Jackson laboratory. For tissue analysis, animals were euthanized through inhalational isoflurane (Sigma, St, Louis, Mo.) prior to tissue collection. All carotid ligation (left carotid) procedures were performed at 10 weeks of age. All experiments were performed on male and female animals at a 1:1 ratio.
# Left and right carotids were cryosectioned using OCT standard protocol and sectioning. The right carotid artery was unligated and served as an internal control. Neoinitima analysis was performed from hematoxylin and eosin (H & E) stained horizontal cross-sections embedded in Optimal Cutting Temperature compound (OCT). Briefly, the distal 0.2 mm of carotid from the ligation suture site were discarded followed by generation of 20 slides (10 pM). Slides 1, 5, 10, and 15 were H&E stained for quantification of neointima. For quantification of the neointima, internal and external elastic lamina perimeters and medial thickness from 4 quadrants were measured and averaged using Image J software from the National Institutes of Health (NIH). Slides 2-4, 6-9, and 11-14 were used for immunofluorescence staining.
# Cohorts of 10-week-old wild-type mice were treated with oral administration in drinking water of GSK343 24 hrs before left carotid ligation and following treatment for 3 weeks. GSK343 inhibitor (25 mg) was dissolved in 1 mL of DMSO to obtain a stock solution of 46 mM. Then, 250 ml of drinking water was supplemented with 250 pl of GSK343 stock solution. Control group for was given with equal volumes of sterile water. Bottles containing GSK343 were replaced with fresh water supplied with drug every 3 days. […]
# FAK = test: immunofluorescence of p-FAK in ligated carotid; format: in vivo, mouse; details: media and intima of carotid arteries
# Description: as §1, with “Ezh2 fl/fl/ (STOCK Ezh2tm2Sho/J) and Myh11-cre-GFP (B6.Cg-Tg(Myh11-cre,-EGFP)2Mik/J) were crossed to generate smooth muscle cell-Ezh2 deficient mice. All above mice and wild-type mice (C57BL/6J) were purchased from Jackson laboratory. For tissue analysis, animals were euthanized through inhalational isoflurane (Sigma, St, Louis, Mo.) prior to tissue collection. All carotid ligation (left carotid) procedures were performed at 10 weeks of age. All experiments were performed on male and female animals at a 1:1 ratio.” left out
# (§2) Left and right carotids were cryosectioned using OCT standard protocol and sectioning. […] Slides 1, 5, 10, and 15 were H&E stained for quantification of neointima. For quantification of the neointima, internal and external elastic lamina perimeters and medial thickness from 4 quadrants were measured and averaged using Image J software from the National Institutes of Health (NIH). […]
# MMP2 and MMP9 activity = test: in vivo MMP activity (MMPSense 750 FAST) after carotid ligation; set-up: species or system mouse; details: 24 h post injection, ligated mice
# Description: Mice were tail vein injected with 600 uL of MMPSense 750 FAST, a near-infrared fluorescence sensor for MMP2 and MMP9 activity, (PerkinElmer, USA). Mice were sacrificed 24 h post injection and aortas were dissected and analyzed using a Kodak image station 4000MM Pro for macroscopic fluorescence reflectance molecular imaging.
# Cohorts of 10-week-old wild-type mice were treated with oral administration in drinking water of GSK343 24 hrs before left carotid ligation and following treatment for 3 weeks. GSK343 inhibitor (25 mg) was dissolved in 1 mL of DMSO to obtain a stock solution of 46 mM. Then, 250 ml of drinking water was supplemented with 250 pl of GSK343 stock solution. Control group for was given with equal volumes of sterile water. Bottles containing GSK343 were replaced with fresh water supplied with drug every 3 days. For Malatl antisense LNA treatments, cohorts of 10-week-old wild-type mice were injected with 15 nmol in saline solution 24 hrs before left carotid ligation following by a second injection 7 days post-ligation.
# Mmp9 = test: immunofluorescence of Mmp9 in ligated carotid; format: in vivo, mouse; details: arterial media and intima of carotid arteries
# Description: as §1, with “Ezh2 fl/fl/ (STOCK Ezh2tm2Sho/J) and Myh11-cre-GFP (B6.Cg-Tg(Myh11-cre,-EGFP)2Mik/J) were crossed to generate smooth muscle cell-Ezh2 deficient mice. All above mice and wild-type mice (C57BL/6J) were purchased from Jackson laboratory. For tissue analysis, animals were euthanized through inhalational isoflurane (Sigma, St, Louis, Mo.) prior to tissue collection. All carotid ligation (left carotid) procedures were performed at 10 weeks of age. All experiments were performed on male and female animals at a 1:1 ratio.” left out
# as §2
# PDGFR = test: immunofluorescence of p-PDGFR in ligated carotid; format: in vivo, mouse; details: media and intima of carotid arteries
# Description: as §1, with “Ezh2 fl/fl/ (STOCK Ezh2tm2Sho/J) and Myh11-cre-GFP (B6.Cg-Tg(Myh11-cre,-EGFP)2Mik/J) were crossed to generate smooth muscle cell-Ezh2 deficient mice. All above mice and wild-type mice (C57BL/6J) were purchased from Jackson laboratory. For tissue analysis, animals were euthanized through inhalational isoflurane (Sigma, St, Louis, Mo.) prior to tissue collection. All carotid ligation (left carotid) procedures were performed at 10 weeks of age. All experiments were performed on male and female animals at a 1:1 ratio.” left out
# as §2
# Hdac9 = test: immunofluorescence of Hdac9 in ligated carotid; format: in vivo, mouse; details: arterial media and intima of carotid arteries
# Description: as §1, with “Ezh2 fl/fl/ (STOCK Ezh2tm2Sho/J) and Myh11-cre-GFP (B6.Cg-Tg(Myh11-cre,-EGFP)2Mik/J) were crossed to generate smooth muscle cell-Ezh2 deficient mice. All above mice and wild-type mice (C57BL/6J) were purchased from Jackson laboratory. For tissue analysis, animals were euthanized through inhalational isoflurane (Sigma, St, Louis, Mo.) prior to tissue collection. All carotid ligation (left carotid) procedures were performed at 10 weeks of age. All experiments were performed on male and female animals at a 1:1 ratio.” left out
# as §2
# [1] = test system: neointimal formation in ligated carotid; test: murine carotid artery ligation model: neointimal formation and stenosis (histology); format: in vivo, mouse; details: wild-type mice, left carotid ligation, 21 days; GSK343 in drinking water from 24 hrs before ligation for 3 weeks; GapmeR 15 nmol 24 hrs before and 7 days post-ligation
# Description: as §1, with “Ezh2 fl/fl/ (STOCK Ezh2tm2Sho/J) and Myh11-cre-GFP (B6.Cg-Tg(Myh11-cre,-EGFP)2Mik/J) were crossed to generate smooth muscle cell-Ezh2 deficient mice. All above mice and wild-type mice (C57BL/6J) were purchased from Jackson laboratory. For tissue analysis, animals were euthanized through inhalational isoflurane (Sigma, St, Louis, Mo.) prior to tissue collection. All carotid ligation (left carotid) procedures were performed at 10 weeks of age. All experiments were performed on male and female animals at a 1:1 ratio.” left out
# as §2
substance,measurement,setting,value
"GapmeR-Malatl: GapmeR antisense oligonucleotide against MALAT1, GTCACAATGCATTCTA (SEQ ID NO: 1) (LNA gapmer, pattern not given here)",expression of contractile proteins such as a-SMA and SM22a,a-SMA and SM22a,improved the expression of contractile proteins
same,phosphorylation of FAK,FAK,dramatic reduction
same,activity of MMPs,MMP2 and MMP9 activity,Inhibition of Mmp activity; also recorded: inhibited the activity of MMPs
same,accumulation of Mmp9,Mmp9,decreased accumulation
same,phosphorylation of PDGFR,PDGFR,dramatic reduction
same,accumulation of Hdac9,Hdac9,decreased accumulation
same,extent of the stenotic response / neointimal formation,[1],significant inhibition of neointimal formation; also recorded: dramatically improved the extent of the stenotic response

# Source: US11938129B2, “Methods and compositions for the treatment of vascular disease” (THE GENERAL HOSPITAL CORPORATION, priority 2018, dated 2024)
